# Test results from US20250368687A1, “SHORT SYNTHETIC PEPTIDES AND USES THEREOF IN THE TREATMENT OF ENTEROVIRUS INFECTION” (CITY UNIVERSITY OF HONG KONG, priority 2024, published 2025).
# How the values were obtained:
# [1] = test system: p38 MAPK; conditions: background statement; cited from earlier work
# [2] = test system: RD cells; assay: CCK-8 assay; assay type: cell-based; conditions: data not shown
# Procedure: RD cells were seeded in 96-well cell plates (1×10^4/well) and placed in the 5% CO2 incubator for 1 day. Then the cells were treated with peptides for 2 days. 90 μl medium and 10 μl of CCK-8 (BioSharp, BS350B) was added to each well of the 96-well plate, which were incubated at 37° C. for 1 h. A microplate reader (BioTek, Synergy H1) was used to measure the OD value of each well at 450 nm.
Molecule,"secretion of inflammatory factors (such as IL-6, IL-10, and TNF-α) [1]",viral replication [1],CC50 (in words) [2]
"C[S+]([O-])c1ccc(-c2nc(-c3ccncc3)c(-c3ccc(F)cc3)[nH]2)cc1 (stereo not drawn) [SB203580, reference compound]",inhibited,reduced,
"Ac-RKKRRQRRRYSREANQPKPSPKRESGEE-NH2 [NC, reference compound]",,,high
